Source: PMC6151961 (Journal of Enzyme Inhibition and Medicinal Chemistry, 2018)
Like-named read-outs stand apart in the source and are kept apart here.

Legend:
[1] = target: CA IX (Homo sapiens, UniProt Q16790); test: Stopped-flow CA-catalysed CO2 hydration inhibition assay; format: biochemical; conditions: for Ki: sulphonamides with IDs C...
[2] = RP-LC chromatographic lipophilicity (logkw); format: physicochemical; conditions: chromatographic lipophilicity from gradient RP-LC, Luna RP-C18, water/acetonitrile with 0.1% formic acid, 30 °C

| Compound | logkw [2] | also measured |
| --- | --- | --- |
| Cc1cc(S(=O)(=O)NC(=N)NCc2ccc(S(N)(=O)=O)cc2)c(SCc2ccccc2)cc1Cl [C98] | 3.920 | logKi(CA IX) ([1]; logarithm of Ki (Ki in nM), mean of three determinations): 1.130; Ki ([1]; read-out: Ki): 0.0231 µM; Ki ([1]; read-out: pKi (exp.) (converted)): 0.0231 µM |
| Cc1cc(S(=O)(=O)NC(=N)Nc2ccc(S(N)(=O)=O)cc2)c(SCc2cc(=O)[nH]c3ccccc23)cc1Cl [C115] | 3.830 |  |
| Cc1cc(S(=O)(=O)NC(=N)NCc2ccc(S(N)(=O)=O)cc2)c(SCc2cccc3ccccc23)cc1Cl [C114] | 3.990 |  |
| Cc1cc(S(=O)(=O)NC(=N)Nc2ccc(S(N)(=O)=O)cc2)c(SCc2ccccc2)cc1Cl [C94] | 4.050 |  |
| Cc1cc(S(=O)(=O)NC(=N)NNc2ccc(S(N)(=O)=O)cc2)c(SCc2cccc3ccccc23)cc1Cl [C113] | 3.830 |  |
| Cc1cc(S(=O)(=O)NC(=N)Nc2cccc(S(N)(=O)=O)c2)c(SCc2ccccc2)cc1Cl [C95] | 3.930 |  |
| Cc1cc(S(=O)(=O)NC(=N)NNc2ccc(S(N)(=O)=O)cc2)c(SCc2cc3c(cc2Cl)OCO3)cc1Cl [C122] | 3.690 |  |
| Cc1cc(S(=O)(=O)NC(=N)Nc2cccc(S(N)(=O)=O)c2)c(SCc2cccc(C(F)(F)F)c2)cc1Cl [C101] | 4.470 |  |
| Cc1cc(S(=O)(=O)NC(=N)Nc2cccc(S(N)(=O)=O)c2)c(SCc2cc(=O)[nH]c3ccccc23)cc1Cl [C116] | 3.800 |  |
| Cc1cc(S(=O)(=O)NC(=N)NNc2ccc(S(N)(=O)=O)cc2)c(SCc2ccc(C(F)(F)F)cc2)cc1Cl [C108] | 4.460 |  |
| Cc1cc(S(=O)(=O)NC(=N)Nc2ccccc2S(N)(=O)=O)c(SCc2ccc(C(F)(F)F)cc2)cc1Cl [C107] | 4.430 |  |
| Cc1cc(S(=O)(=O)NC(=N)Nc2ccccc2S(N)(=O)=O)c(SCc2cc(=O)[nH]c3ccccc23)cc1Cl [C117] | 3.870 |  |
| Cc1cc(S(=O)(=O)NC(=N)NNc2ccc(S(N)(=O)=O)cc2)c(SCc2cc(=O)[nH]c3ccccc23)cc1Cl [C118] | 3.770 |  |
| Cc1cc(S(=O)(=O)NC(=N)Nc2ccccc2S(N)(=O)=O)c(SCc2cccc(C(F)(F)F)c2)cc1Cl [C102] | 4.430 |  |
